Assay results taken from patent publication US20230355584A1, “COMPOSITIONS AND METHODS FOR THE TREATMENT OF LIPID-RELATED DISORDERS” (Raziel Therapeutics Ltd., priority 2020, published 2023).

How the values were obtained:
Type in all cases: in vivo
submental fat [1] = test: Phase 2a study: submental fat volume by MRI; settings: human subjects, day 84 vs prior to injection
Method: 28 patients with submental skin fold thickness greater than 1.5 cm as measured with calipers were divided into two cohorts, Cohort 1 (12 patients) and Cohort 2 (16 subjects). In Cohort 1, 8 subjects were injected with a 50 mg per mL solution of 5-(3,6-dibromo-9H-carbazol-9-yl)-N,N,N-trimethylpentan-1-aminium chloride (Compound 1A) in a vehicle comprising water, propylene glycol, and a surfactant, and 4 patients were injected with a placebo solution comprising vehicle only. In Cohort 2, 6 patients were dosed with a placebo solution comprising vehicle only, and 10 patients were injected with a 50 mg per mL solution of 5-(3,6-dibromo-9H-carbazol-9-yl)-N,N,N-trimethylpentan-1-aminium chloride in a vehicle comprising water, propylene glycol, and a surfactant. […] Cohort 2 subjects began treatment after Cohort 1 was evaluated for safety on day 28 post-injection. Submental fat volume was determined via magnetic resonance imaging (MRI) prior to injection and on day 84 post-injection. Treatment efficacy was evaluated via the Physician’s Global Assessment (PGS) questionnaire on days 28, 56, and 84 after injection, as described above. Patient satisfaction was assessed using the FACE-Q questionnaire prior to injection and on days 28, 56, and 84 after injection, as described above.

submental fat [2] = test: Phase 2a study: Physician Impression scale (physician's global assessment of submental fat); settings: human, 18 treated subjects (low and high dose), Day 84 vs baseline
Method: 28 patients with submental skin fold thickness greater than 1.5 cm as measured with calipers were divided into two cohorts, Cohort 1 (12 patients) and Cohort 2 (16 subjects). In Cohort 1, 8 subjects were injected with a 50 mg per mL solution of 5-(3,6-dibromo-9H-carbazol-9-yl)-N,N,N-trimethylpentan-1-aminium chloride (Compound 1A) in a vehicle comprising water, propylene glycol, and a surfactant, and 4 patients were injected with a placebo solution comprising vehicle only. […] Dosing is determined by cohort, as shown in Table 6 below: The maximum compound dose was 120 mg per patient (a total of 48 injections at 2.5 mg per injection) for Cohort 1 and 240 mg per patient (a total of 48 injections at 5 mg per injection) for Cohort 2. […] Cohort 2 subjects began treatment after Cohort 1 was evaluated for safety on day 28 post-injection. […] Submental fat volume was determined via magnetic resonance imaging (MRI) prior to injection and on day 84 post-injection. Treatment efficacy was evaluated via the Physician’s Global Assessment (PGS) questionnaire on days 28, 56, and 84 after injection, as described above. Patient satisfaction was assessed using the FACE-Q questionnaire prior to injection and on days 28, 56, and 84 after injection, as described above.

submental fat [3] = test: Phase 2a study: Subject Face-Q Questionnaire (subject satisfaction); settings: human subjects, Day 84 vs. baseline
Method: 28 patients with submental skin fold thickness greater than 1.5 cm as measured with calipers were divided into two cohorts, Cohort 1 (12 patients) and Cohort 2 (16 subjects). In Cohort 1, 8 subjects were injected with a 50 mg per mL solution of 5-(3,6-dibromo-9H-carbazol-9-yl)-N,N,N-trimethylpentan-1-aminium chloride (Compound 1A) in a vehicle comprising water, propylene glycol, and a surfactant, and 4 patients were injected with a placebo solution comprising vehicle only. […] Dosing is determined by cohort, as shown in Table 6 below: The maximum compound dose was 120 mg per patient (a total of 48 injections at 2.5 mg per injection) for Cohort 1 and 240 mg per patient (a total of 48 injections at 5 mg per injection) for Cohort 2. […] Cohort 2 subjects began treatment after Cohort 1 was evaluated for safety on day 28 post-injection. Subjects were also evaluated by a Face-Q Questionnaire, at baseline visit prior to injection and at posttreatment follow up visits on Days 28, 56, and 84. […] Submental fat volume was determined via magnetic resonance imaging (MRI) prior to injection and on day 84 post-injection. Treatment efficacy was evaluated via the Physician’s Global Assessment (PGS) questionnaire on days 28, 56, and 84 after injection, as described above. […]

[4] = Phase 2a study: safety and tolerability (adverse events, vital signs); settings: human subjects
Method: 28 patients with submental skin fold thickness greater than 1.5 cm as measured with calipers were divided into two cohorts, Cohort 1 (12 patients) and Cohort 2 (16 subjects). In Cohort 1, 8 subjects were injected with a 50 mg per mL solution of 5-(3,6-dibromo-9H-carbazol-9-yl)-N,N,N-trimethylpentan-1-aminium chloride (Compound 1A) in a vehicle comprising water, propylene glycol, and a surfactant, and 4 patients were injected with a placebo solution comprising vehicle only. In Cohort 2, 6 patients were dosed with a placebo solution comprising vehicle only, and 10 patients were injected with a 50 mg per mL solution of 5-(3,6-dibromo-9H-carbazol-9-yl)-N,N,N-trimethylpentan-1-aminium chloride in a vehicle comprising water, propylene glycol, and a surfactant.
The maximum compound dose was 120 mg per patient (a total of 48 injections at 2.5 mg per injection) for Cohort 1 and 240 mg per patient (a total of 48 injections at 5 mg per injection) for Cohort 2. Injections were given at a 90° angle to the injected skin surface and spaced of a submental area-shaped grid in which the distance between rows was 1 cm and the distance between columns was also 1 cm. Cohort 2 subjects began treatment after Cohort 1 was evaluated for safety on day 28 post-injection.

SMILES: C[N+](C)(C)CCCCCn1c2ccc(Br)cc2c2cc(Br)ccc21.[Cl-] [Compound 1A, 5-(3,6-dibromo-9H-carbazol-9-yl)-N,N,N-trimethylpentan-1-aminium chloride]
- Submental fat volume reduction (MRI) (submental fat [1]; high dose (Cohort 2, 5 mg/injection, up to 240 mg), P<0.05 vs the placebo group): -22.2% ± 14.9
- Submental fat volume reduction (MRI) (submental fat [1]; low dose (Cohort 1, 2.5 mg/injection, up to 120 mg), P=0.55 vs the placebo group, NS): -10.6% ± 14.5
- Subjects demonstrating improvement in submental fat (Physician Impression scale) (submental fat [2]): all but one of the 18
- Fold increase in mean subject satisfaction score (Face-Q) (submental fat [3]; high dose): 2.5 fold
- Fold increase in mean subject satisfaction score (Face-Q) (submental fat [3]; low dose): 2.4 fold
- Severity of edema and induration compared to placebo ([4]; high dose group, particularly in the first 24 hours following injection): higher severity
- Safety and tolerability ([4]; low and high doses (averaged doses of 80 mg and 158.5 mg), no clinically significant changes in vital signs): safe and well tolerated
